Test results taken from US20130071897A1, “METHOD FOR CONTROLLING UNDESIRABLE BYPRODUCTS FORMATION CAUSED BY CONTAMINATING ORGANISMS IN THE PRODUCTION OF ETHANOL FROM SYNGAS” (COSKATA, INC., priority 2011, published 2013).
“And” between values parts separate entries of the source, which are not always exact repeats. Equal values may be shown once.

Experiments:
C. autoethanogenum = experiment: Toxicity to C. autoethanogenum by batch fermentation using syngas substrate, optical density; type: cell-based, Clostridium autoethanogenum; settings: for O.D. Response of Various Inhibitors on C. autoethanogenum: Table 21, one value per compound; for O.D. Response to Various Inhibitors: duplicates A and B, amount not given
Protocol: In this example various crotonate-like compounds on are evaluated for toxicity to C. autoethanogenum by batch fermentation using syngas substrate. The batch fermentations are conducted by anoxically filling 100 mL serum bottles with 10 mL of media having the composition given in Tables 12 and 13. Duplicate runs are conducted for each concentration. The compounds are: • C-1 Ethyl 4,4,4-trifluoro-3-(trifluoromethyl)crotonate • C-4 4,4,4-Trifluorocrotonamide • C-9 Ethyl 4,4,4-Trifluoro-3-(amino)crotonate • C-18 3 trifluoromethyl-4-methoxybenzoate.
Each bottle is inoculated with 1.0 mL of seed culture inoculum from an active fermenter using syngas substrate and containing Clostridium autoethanogenum, which inoculum has an OD of about 4.92 (which upon a 10 times dilution provides a starting OD for the fermentation of about 0.49). The bottles are gased with syngas to about 100 kilopascals and maintained at a temperature of 37° C. The bottles are regassed with syngas every 8 to 12 hours. The syngas has the approximate composition set forth in Examples 6 to 10. Twenty four hours after inoculation of the bottles with the bacteria, the compounds are added to different bottles as a solution in 50 μL of N-methylpyrrolidone in the amounts indicated in Tables 20 and 21. The fermentation process is allowed to progress at 37° C. At selected intervals of time, bacterial growth is measured by reading the OD of the fermentation liquid using a Thermo Spectronic Genesys 20 spectrophotometer. Optical density is measured by anoxically removing an aliquot of fermentation liquid and adding it to a disposable cuvette. OD's ranging between 0.01 and 0.4 are measured using fermentation liquid directly, while OD's greater than 0.4 are measure after performing a 1/10 dilution with water.

[1] = test system: Clostridium tyrobutyricum; experiment: Serum bottle batch fermentation of Clostridium tyrobutyricum on fructose, optical density; type: cell-based; settings: for O.D. Response: 5 mM, duplicates A and B
Protocol: Ethyl 3-(trifluoromethyl)benzoate is evaluated in a series of batch fermentations to determine the growth response of butyrogens to the presence of this compound at varying concentrations. The batch fermentations are conducted by anoxically filling 100 mL serum bottles with 15 mL of media having the composition given in Tables 12 and 13. About 0.15 mL of a 50% w/w solution of fructose in water (final fructose concentration about 5 g/L) is provided in the bottles. Duplicate runs are conducted for each concentration.
(§1) Each bottle is inoculated with 1.5 mL of seed culture inoculum of the strict butyrogen Clostridium tyrobutyricum, which has an OD of about 0.40 (which upon a 10 times dilution provides a starting OD for the fermentation of about 0.04). The bottles are maintained at a temperature of 37° C. Two hours after inoculation of the bottles with the bacteria, the compound is added to different bottles as a solution in 50 μL of N-methylpyrrolidone in the amounts indicated in Table 15. The fermentation process is allowed to progress at 37° C. At selected intervals of time, bacterial growth is measured by reading the optical density (OD) of the fermentation liquid. Optical density is measured by anoxically removing an aliquot of fermentation liquid and adding it to a disposable cuvette. OD's ranging between 0.01 and 0.4 are measured directly, while OD's greater than 0.4 are measure after performing a 1/10 dilution with water.
In this example ethyl 4,4,4-trifluoro-3-(trifluoromethyl)crotonate and ethyl 3-trifluoromethyl-4-methoxybenzoate are evaluated by batch fermentation. The batch fermentations are conducted by anoxically filling 100 mL serum bottles with 15 mL of media having the composition given in Tables 12 and 13. About 0.15 mL of a 50% w/w solution of fructose in water (final fructose concentration about 5 g/L) is provided in the bottles. Duplicate runs are conducted for each concentration.
as §1, with “of about 0.42 (which upon” for “of about 0.40 (which upon”, “of about 0.042). The bottles” for “of about 0.04). The bottles”, “in Table 16 and 17. The fermentation” for “in Table 15. The fermentation”, “0.4 are measured after performing” for “0.4 are measure after performing”

[2] = 0 Hours, added 24 h after inoculation
[3] = 2.5 Hours, added 24 h after inoculation
[4] = 6.5 Hours, added 24 h after inoculation
[5] = 24.5 Hours, added 24 h after inoculation

In the case of CCOC(=O)C=C(C(F)(F)F)C(F)(F)F [Compound A, ethyl 4,4,4-trifluoro-3-(trifluoromethyl)crotonate], the “O.D. Response of Various Inhibitors on C. autoethanogenum” value (“O.D. Response of Various Inhibitors” below) (C. autoethanogenum; [2]) is reported as 0.49, the “O.D. Response of Various Inhibitors” value (C. autoethanogenum; [3]) is reported as 0.44 and the “O.D. Response of Various Inhibitors” value (C. autoethanogenum; [4]) is reported as 0.44. For the same molecule, the “O.D. Response of Various Inhibitors” value (C. autoethanogenum; [5]) was 1.12, the “O.D. Response of Various Inhibitors” value (C. autoethanogenum; 30.5 Hours) was 1.18 and the “O.D. Response of Various Inhibitors” value (C. autoethanogenum; 47.5 Hours) was 0.66. For the same molecule, the “O.D. Response of Various Inhibitors” value (C. autoethanogenum; 56 Hours) was 0.58, the “O.D. Response to Various Inhibitors” value (C. autoethanogenum; [2]) was 0.49 and the “O.D. Response to Various Inhibitors” value (C. autoethanogenum; 2.5 Hours, added 24 h after inoculation, listed as C-1) was 0.42 and 0.46. For the same molecule, the “O.D. Response to Various Inhibitors” value (C. autoethanogenum; 6.5 Hours, added 24 h after inoculation, listed as C-1) was 0.42 and 0.46, the “O.D. Response to Various Inhibitors” value (C. autoethanogenum; 24.5 Hours, added 24 h after inoculation, listed as C-1) was 1.17 and 1.08 and the “O.D. Response to Various Inhibitors” value (C. autoethanogenum; 30.5 Hours, added 24 h after inoculation, listed as C-1) was 1.15 and 1.22. For the same molecule, the “O.D. Response to Various Inhibitors” value (C. autoethanogenum; 47.5 Hours, added 24 h after inoculation, listed as C-1) was 0.66 and 0.67, the “O.D. Response” value ([1]; 0 Hours, added 2 h after inoculation) was 0.42 and the “O.D. Response” value ([1]; 2 Hours, added 2 h after inoculation) was 0.10. For the same molecule, the “O.D. Response” value ([1]; 4.5 Hours) was 0.14 and 0.11, the “O.D. Response” value ([1]; 6 Hours) was 0.13 and the “O.D. Response” value ([1]; 24 Hours) was 0.12.
For CCOC(=O)/C=C(\N)C(F)(F)F [B, ethyl-3-amino-4,4,4-trifluorocrotonate], the “O.D. Response of Various Inhibitors” value (C. autoethanogenum; [2]) was 0.49, the “O.D. Response of Various Inhibitors” value (C. autoethanogenum; [3]) was 0.41 and the “O.D. Response of Various Inhibitors” value (C. autoethanogenum; [4]) was 0.44. For the same molecule, the “O.D. Response of Various Inhibitors” value (C. autoethanogenum; [5]) was 1.06, the “O.D. Response of Various Inhibitors” value (C. autoethanogenum; 30.5 Hours) was 1.38 and the “O.D. Response of Various Inhibitors” value (C. autoethanogenum; 47.5 Hours) was 1.90. For the same molecule, the “O.D. Response of Various Inhibitors” value (C. autoethanogenum; 56 Hours) was 1.98, the “O.D. Response to Various Inhibitors” value (C. autoethanogenum; [2]) was 0.49 and the “O.D. Response to Various Inhibitors” value (C. autoethanogenum; 2.5 Hours, added 24 h after inoculation, listed as C-9) was 0.40 and 0.42. The “O.D. Response to Various Inhibitors” value (C. autoethanogenum; 6.5 Hours, added 24 h after inoculation, listed as C-9) was 0.42 and 0.46, the “O.D. Response to Various Inhibitors” value (C. autoethanogenum; 24.5 Hours, added 24 h after inoculation, listed as C-9) was 1.14 and 0.97 and the “O.D. Response to Various Inhibitors” value (C. autoethanogenum; 30.5 Hours, added 24 h after inoculation, listed as C-9) was 1.28 and 1.47. For the same molecule, the “O.D. Response to Various Inhibitors” value (C. autoethanogenum; 47.5 Hours, added 24 h after inoculation, listed as C-9) was 1.67 and 2.12, the “O.D. Response to Varying Inhibitor Concentrations” value ([1]; 100 ppm, 22.5 Hours, added 25 h after inoculation) was 0.84 and the “O.D. Response to Varying Inhibitor Concentrations” value ([1]; 100 ppm, 28.5 Hours) was 1.48. For the same molecule, the “O.D. Response to Varying Inhibitor Concentrations” value ([1]; 100 ppm, 43.5 Hours) was 1.53, the “O.D. Response to Varying Inhibitor Concentrations” value ([1]; 250 ppm, 22.5 Hours, added 25 h after inoculation) was 0.86 and the “O.D. Response to Varying Inhibitor Concentrations” value ([1]; 250 ppm, 28.5 Hours) was 1.87. The “O.D. Response to Varying Inhibitor Concentrations” value ([1]; 250 ppm, 43.5 Hours) was 1.92, the “O.D. Response to Varying Inhibitor Concentrations” value ([1]; 500 ppm, 22.5 Hours, added 25 h after inoculation) was 0.80 and the “O.D. Response to Varying Inhibitor Concentrations” value ([1]; 500 ppm, 28.5 Hours) was 0.93. For the same molecule, the “O.D. Response to Varying Inhibitor Concentrations” value ([1]; 500 ppm, 43.5 Hours) was 1.00, the “O.D. Response to Varying Inhibitor Concentrations” value ([1]; 1000 ppm, 22.5 Hours, added 25 h after inoculation) was 0.70 and the “O.D. Response to Varying Inhibitor Concentrations” value ([1]; 1000 ppm, 28.5 Hours) was 0.77. For the same molecule, the “O.D. Response to Varying Inhibitor Concentrations” value ([1]; 1000 ppm, 43.5 Hours) was 0.78.
